In paper doi:10.1101/2024.10.13.618094 (bioRxiv, 2024):
Entries after “also recorded” stand apart in the source; their conditions may differ. Each block holds one molecule with its values, some of them ahead of it. *1 amine or outer side, *2 acyl side, *3 side chain or, on linkers, in order; H or OH if unused. Where a SMILES comes first, the peptide text is derived from it. [ ]: non-standard residue; d: D form. The star is where a group is joined. Pheol(OBn) = c1ccc(COC[C@H](Cc2ccccc2)N*)cc1; Dnp = O=[N+]([O-])c1ccc(*)c([N+](=O)[O-])c1; NH(4-phenylbutyl) = c1ccc(CCCCN*)cc1; Mca = COc1ccc2c(CC(=O)*)cc(=O)oc2c1; X1 = C[C@H](N[*:1])C(=O)C(=O)[*:2]

How the values were obtained:
[1] = system: purified wild-type RHBDL4; test: TAMRA-FP active-site probe competition on purified RHBDL4; format: binding, human; conditions: purified RHBDL4, SDS-PAGE, Cy3 fluorescence; compared with inactive RHBDL4-S144A control
Text: Inhibition of recombinant purified RHBDL4 proteolytic activity by N-substituted peptidyl α-ketoamides. (A) Proteolytic rates of the fluorescent substrate IQ6 by RHBDL4 in the presence of increasing concentrations of the general protease inhibitors, Dicyclocoumarin (DCI), tosyl-phenylalanine-chloromethyl ketone (TPCK) and 4-(2-aminoethyl) benzenesulfonyl fluoride (AEBSF). […] (D) Representative inhibition curve derived from measuring rates of RHBDL4 proteolysis of the fluorescent substrate IQ6 with increasing concentrations of compound 1a. (E) Same as (D), except inhibition curve was derived from using increasing concentrations of compound 1b. […] Reactions were quenched with 1×Laemmli buffer and loaded on 12% SDS-PAGE gel. Post-transfer membranes were visualized using a fluorescence Cy3 filter and by western blotting using an α-RHBDL4 antibody. For (A), (D), and (E), all inhibitors were pre-incubated with RHBDL4 for 1hr and allowed to react with the IQ6 substrate for 2 h. Assays were performed in triplicate, and data points represent the average ± standard deviation.
In vitro inhibition of RHBDL4 activity with TMED7-derived peptidyl α-ketoamides. […] (B) Representative inhibition curve derived from measuring rates of RHBDL4 proteolysis of the fluorescent substrate IQ6 with increasing concentrations of compound 3. (C) Same as (B), except inhibition curve was derived from using increasing concentrations of compound 4. […] Reactions were quenched with 1×Laemmli buffer and loaded on 12% SDS-PAGE gel. Post-transfer membranes were visualized using a fluorescence Cy3 filter and by western blotting using an α-RHBDL4 antibody. […] For (B) and (C), all inhibitors were pre-incubated with RHBDL4 for 1hr and allowed to react with the IQ6 substrate for 2 h. All assays were performed in triplicate, and data points represent the average ± standard deviation.

[2] = system: RHBDL4-GFP in ER-enriched microsomes from HEK293T cells; test: TAMRA-FP competition label assay in ER-enriched microsomes; format: binding, human; conditions: 100 μM compound, preincubated 1 h at 37°C; 500 nM TAMRA-FP for 2 h at 37°C; immunoprecipitation, Cy3 fluorescence
Experimental: We aimed to investigate our RHBDL4 inhibitors in a more physiological context. […] To achieve this, we prepared ER-enriched microsomes from HEK293T cells transfected with RHBDL4-GFP, then pre-incubated microsomes with 100 μM of each compound, before TAMRA-FP was added to the microsomal fractions. RHBDL4-GFP was immunoprecipitated and visualized for TAMRA-FP fluorescence signal and western blotting. […] We surmise that the peptidyl α-ketoamides may have low membrane penetrability, making them weak inhibitors in microsome and cell-based assays. Further refinement is needed to design peptidyl α-ketoamides that effectively penetrate lipids and inhibit RHBDL4 activity in its native context.
Figure 6. RHBDL4 inhibition studies in ER-enriched microsomes ER-enriched microsomes were preincubated with 100 μM of compounds or DMSO vehicle control followed by addition of 500 nM of TAMRA-FP serine hydrolase probe. […] TAMRA-FP labeling was analyzed via Cy3 filter followed by western blotting using α-GFP antibody.
ER-enriched microsomes were obtained by hypotonic swelling and centrifugation from Hek293T cells 24 h after transfection. […] TAMRA-FP-labelling was analyzed in the wet gel with a green light source (535 nm) and a Cy3 filter by detecting fluorescence emission using ImageQuant 800 Fluor CCD imager (Cytiva) followed by western blotting using a α-GFP antibody (Roche).

[3] = target: T1, recombinant human RHBDL4 (Homo sapiens, UniProt Q8TEB9); test: FRET-based cleavage assay with fluorogenic substrates (Michaelis–Menten kinetics); format: biochemical; conditions: pH 8, 37°C, 0.1% DDM, Michaelis–Menten fit, triplicate, average ± SD
T1 construct: The entire RHBDL4 and RHBDL4-S144A cDNAs were subcloned into the pcDNA3.1 vector; 6xHis (C, cleaved yes); made in house; host or cells: Freestyle 293-F cells (transient transfection, pcDNA3.1-HisA)
T1 sequence (Q8TEB9 1-315): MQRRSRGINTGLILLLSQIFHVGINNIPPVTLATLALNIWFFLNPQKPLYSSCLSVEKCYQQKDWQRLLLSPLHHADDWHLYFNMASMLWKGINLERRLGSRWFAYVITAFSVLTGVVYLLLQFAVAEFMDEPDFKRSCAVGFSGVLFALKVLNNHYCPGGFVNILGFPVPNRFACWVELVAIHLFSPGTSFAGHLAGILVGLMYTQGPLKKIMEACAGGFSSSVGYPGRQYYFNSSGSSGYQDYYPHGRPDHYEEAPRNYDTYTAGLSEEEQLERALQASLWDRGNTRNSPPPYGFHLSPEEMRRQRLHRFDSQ
Experimental: We employed a FRET-based assay to determine the activity of RHBDL4. The RHBDL4 proteolytic activity was tested against a suite of fluorescent, internally quenched (IQ) substrates that have been previously used to test the activity of rhomboid protease PARL (Fig. S2A)([Lysyk et al. 2021]). These substrates consist of 7–10-mer peptide sequences flanked by the fluorescent donor group 7-methoxycourmarin (mc) on the N terminus and quencher acceptor group dinitrophenol (dnp) on the C terminus (Fig. 2A) ([Arutyunova et al. 2018]). In general, the donor and acceptor are in proximity within the fluorogenic peptides and show low fluorescence due to internal quenching. Hydrolysis of the peptide bond between the donor and the acceptor leads to physical separation of the FRET pairs and increase in fluorescence, which would be proportional to RHBDL4 protease activity (Fig. 2A).
The reaction setup in our FRET assay enabled the direct determination of Michaelis–Menten kinetic parameters Km and kcat for the cleavage of IQ6, IQ41, and IQ46 by RHBDL4. Our fluorescence reading data were converted to μM/h using the standard calibration curve for all three IQ substrates, and the correction factor for the inner filter effect was applied. We confirmed that purified RHBDL4 followed Michaelis–Menten kinetics with KmIQ6=10.73±2μM , KmIQ41=5.63±2μM , and KmIQ46=7.19±1μM and kcatIQ6=7.33±0.6h^−1 , kcatIQ41=2.41±0.6h^−1 , and kcatIQ46=3.62±0.08h^−1 (Fig. 2B and S2B).
The enzymatic assay was performed as previously described (Arutyunova et al., 2014, [Arutyunova et al., 2018]). […] The FRET-based cleavage assay was conducted in a fluorescence multi-well plate reader (SynergyMx, BioTek, VT, USA). Upon excitation at 320 nm, the emission intensity at 400 nm was recorded for 2 h at minimal intervals under shaking conditions and plotted using the GraphPad PRISM software. The initial velocities were defined as the slopes of the curve of the generated product as a function of time. The plots of the generated product against the corresponding substrate concentration were fitted with the Michaelis–Menten equation. Catalytic parameters were extrapolated using GraphPad PRISM. […] The samples were desalted using C18 tips (Rainin, Columbus, OH, USA), eluted in 80% acetonitrile, and dried down in a vacuum centrifuge prior to mass spectrometry analysis.
All the calculations for Km, Vmax, and Kcat for RHBDL4 and its mutants were performed using GraphPad PRISM.

[4] = system: RHBDL4; test: 1.5 μM of wild-type RHBDL4 in activity buffer containing 20 mM citrate phosphate pH 8.0, 150 mM NaCl, 20% (v/v) glycerol, and 0.1% (w/v) DDM; conditions: human, 37°C, up to 2 h
[5] = system: RHBDL4; test: 1.5 μM of wild-type RHBDL4 (purified recombinant); conditions: human, room temperature, up to 4 h
[6] = target: T2, rhomboid protease RHBDL4, wild type (recombinant, purified) (human) (UniProt Q8TEB9)
T2 sequence: T1 sequence (Q8TEB9 1-315)

[7] = target: T3, rhomboid protease RHBDL4, wild type (recombinant, purified) (human, UniProt Q8TEB9 1-315); test: cell-based or functional assay
T3 sequence (looked up): T1 sequence (Q8TEB9 1-315)

Molecule: CC(=O)N[C@H](C(=O)N[C@@H](CCCNC(=N)N)C(=O)NC(Cc1c[nH]cn1)C(=O)N[C@@H](C)C(=O)C(=O)N[C@H](COCc1ccccc1)Cc1ccccc1)C(C)C (some centres unmarked) [Compound 1a]
- Competition with TAMRA-FP probe for the RHBDL4 catalytic site (fluorescent signal) [1]: significant reduction of fluorescent signal

Molecule: CSCC[C@H](NC(=O)[C@H](CCC(N)=O)NC(C)=O)C(=O)N[C@@H](CCC(=O)O)C(=O)N[C@@H](CO)C(=O)N[C@@H](C)C(=O)C(=O)NCCCCc1ccccc1 [Compound 3] (Ac-QMES[X1]-{NH(4-phenylbutyl)})
- Competition with TAMRA-FP probe for the RHBDL4 catalytic site (fluorescent signal) [1]: reduction in overall fluorescent signal
- Effect on TAMRA-FP labeling of RHBDL4-GFP in microsomes [2]: reduced

Molecule: CSCC[C@H](NC(=O)[C@H](CCC(N)=O)NC(C)=O)C(=O)N[C@@H](CCC(=O)O)C(=O)N[C@@H](CO)C(=O)N[C@@H](C)C(=O)C(=O)N[C@H](COCc1ccccc1)Cc1ccccc1 [Compound 4] (Ac-QMES[X1]-{Pheol(OBn)})
- Competition with TAMRA-FP probe for the RHBDL4 catalytic site (fluorescent signal) [1]: reduction in overall fluorescent signal
- Effect on TAMRA-FP labeling of RHBDL4-GFP in microsomes [2]: reduced

Molecule: Ac-QMESA-4mc [KSp207, TMED7-derived fluorescent substrate Ac-QMESA-4mc]
- Km [3]: 3.09 ± 1 µM

Molecule: mca-AVFLSAVAG(dnp)
- not cleaved [4]: did not observe any RHBDL4-catalyzed activity

Molecule: mca-RPKPYAvWMK(dnp)
- not cleaved [4]: did not observe any RHBDL4-catalyzed activity

Molecule: mca-RPPGFSAFK(dnp)
- cleaved bond [5]: Ala-Phe, 4 h; also recorded: Ser-Ala, 4 h

Molecule: peptidyl α-ketoamide compound 1a (Ac-VRHA-CONH-CH(Bn)-CH2OBn) (peptide)
- IC50 of inhibition of RHBDL4 proteolysis of the fluorescent substrate IQ6 (in vitro FRET-based cleavage assay; 1 h pre-incubation, 2 h reaction) [6]: 2310 nM

Molecule: peptidyl α-ketoamide compound 1b (Ac-VRHA-CONH-CH(Bn)-CH2OBn) (peptide)
- IC50 of inhibition of RHBDL4 proteolysis of the fluorescent substrate IQ6 (in vitro FRET-based cleavage assay; 1 h pre-incubation, 2 h reaction) [6]: 6100 nM

Molecule: Ac-QMESA-{CONH‑(CH2)4‑Ph} (also: C-terminal α-ketoamide) [peptidyl α-ketoamide compound 3 (Ac-QMESA-CONH-(CH2)4-Ph)]
- IC50 of inhibition of RHBDL4 proteolysis of the fluorescent substrate IQ6 (in vitro FRET-based cleavage assay; 1 h pre-incubation, 2 h reaction) [7]: 54 nM

Molecule: Ac-QMESA-{CONH‑CH(Bn)‑CH2OBn} (also: C-terminal α-ketoamide) [peptidyl α-ketoamide compound 4 (Ac-QMESA-CONH-CH(Bn)-CH2OBn)]
- IC50 of inhibition of RHBDL4 proteolysis of the fluorescent substrate IQ6 (in vitro FRET-based cleavage assay; 1 h pre-incubation, 2 h reaction) [7]: 85 nM

Molecule: Ac-PGFSA-{α‑ketoamide ‑CONH‑(CH2)4‑Ph} [peptidyl α-ketoamide compound 2 (Ac-PGFSA-CONH-(CH2)4-Ph)]
- IC50 of inhibition of RHBDL4 activity (in vitro FRET-based cleavage assay) [6]: 3400 nM

More lines, now with the values ahead:

- Km [3]: 10.7 ± 2 µM
Molecule: Mca-Arg-Pro-Pro-Gly-Phe-Ser-Ala-Phe-Lys (DNP)-OH (Mca-RPPGFSAFK(Dnp)-OH; SMILES COc1ccc2c(CC(=O)N[C@@H](CCCNC(=N)N)C(=O)N3CCC[C@H]3C(=O)N3CCC[C@H]3C(=O)NCC(=O)N[C@@H](Cc3ccccc3)C(=O)N[C@@H](CO)C(=O)N[C@@H](C)C(=O)N[C@@H](Cc3ccccc3)C(=O)N[C@@H](CCCCNc3ccc([N+](=O)[O-])cc3[N+](=O)[O-])C(=O)O)cc(=O)oc2c1) [IQ6, fluorescent internally quenched substrate mca-…(dnp)]

- Km [3]: 7.19 ± 1 µM
Molecule: mca-FLVRGK(dnp) [IQ46, fluorescent internally quenched substrate mca-FLVRGK(dnp)]

- Km [3]: 5.63 ± 2 µM
Molecule: mca-FVTKGK(dnp) [IQ41, fluorescent internally quenched substrate mca-FVTKGK(dnp)]
